Laboratory results as given in patent publication US20260176289A1, “SMALL MOLECULE INHIBITORS OF KRAS PROTEINS” (Merck Sharp & Dohme LLC, priority 2022, published 2026).

Assays:
KRAS-WT = KRAS-WT (Homo sapiens, UniProt P01116); assay: SOS-catalyzed nucleotide exchange assay (Procedure A, TR-FRET), KRAS-WT; type: biochemical; conditions: nucleotide exchange, read-out: KRAS WT GNE IC50
In short: (§1)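 TR-FRET readout (520/495 nm) of SOS-driven exchange of Bodipy-GDP for unlabeled GTP (3 mM) on biotinylated, Tb-streptavidin-bound RAS, after 60 min compound preincubation at room temperature. Exchange times and RAS/SOS levels: 60 min for WT (1/40 nM), G12C triple mutant (3/40 nM), NRAS (1.25/40 nM); 90 min for G12V (1.25/160 nM). Four-parameter logistic fits on normalized effect.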

[1] = molecular target: KRAS-G12C (C51S/C80L/C118S) (Homo sapiens, UniProt P01116, C118S/C51S/C80L/G12C); assay: SOS-catalyzed nucleotide exchange assay (Procedure A, TR-FRET), KRAS-G12C; type: biochemical; conditions: nucleotide exchange, Procedure A; read-out: KRAS G12C GNE IC50
Chain of KRAS-G12C (C51S/C80L/C118S) (P01116 with tags, fused parts or gaps isoform P01116-2 G12C/C51S/C80L/C118S): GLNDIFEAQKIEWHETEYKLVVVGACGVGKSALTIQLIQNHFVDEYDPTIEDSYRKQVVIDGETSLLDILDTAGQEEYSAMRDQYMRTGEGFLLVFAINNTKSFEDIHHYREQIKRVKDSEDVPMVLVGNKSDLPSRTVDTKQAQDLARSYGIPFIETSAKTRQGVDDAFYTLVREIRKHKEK
In short: as §1

KRAS-G12D = KRAS-G12D (Homo sapiens, UniProt P01116, G12D); assay: SOS-catalyzed nucleotide exchange assay (Procedure A, TR-FRET), KRAS-G12D; type: biochemical; conditions: nucleotide exchange, read-out: KRAS G12D GNE IC50
Chain of KRAS-G12D (P01116 with tags, fused parts or gaps isoform P01116-2 G12D): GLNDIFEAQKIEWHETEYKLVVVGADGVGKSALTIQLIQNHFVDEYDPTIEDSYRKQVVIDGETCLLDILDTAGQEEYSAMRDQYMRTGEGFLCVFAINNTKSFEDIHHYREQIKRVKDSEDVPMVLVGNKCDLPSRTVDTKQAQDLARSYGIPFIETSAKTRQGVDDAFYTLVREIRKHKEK
In short: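 Signal ratio (520/495 nm, excitation 340 nm) reports Bodipy-GDP retention on biotinylated RAS after SOS-catalyzed exchange with 3 mM GTP. SOS was 40 nM, except 160 nM for G12V. Room-temperature exchange lasted 60 min (90 min for G12V), following a 60 min compound preincubation.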

KRAS-G12V = KRAS-G12V (Homo sapiens, UniProt P01116, G12V); assay: SOS-catalyzed nucleotide exchange assay (Procedure A, TR-FRET), KRAS-G12V; type: biochemical; conditions: nucleotide exchange, read-out: KRAS G12V GNE IC50
Chain of KRAS-G12V (P01116 with tags, fused parts or gaps isoform P01116-2 G12V): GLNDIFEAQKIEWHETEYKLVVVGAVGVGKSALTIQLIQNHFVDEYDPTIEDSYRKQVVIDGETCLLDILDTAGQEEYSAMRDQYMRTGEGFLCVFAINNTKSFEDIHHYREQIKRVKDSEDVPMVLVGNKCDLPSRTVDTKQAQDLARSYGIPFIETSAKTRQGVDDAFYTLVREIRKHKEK
In short: as §1

KRAS-G13D = KRAS-G13D (Homo sapiens, UniProt P01116, G13D); assay: SOS-catalyzed nucleotide exchange assay (Procedure A, TR-FRET), KRAS-G13D; type: biochemical; conditions: nucleotide exchange, Procedure A; read-out: KRAS G13D GNE IC50
Chain of KRAS-G13D (P01116 with tags, fused parts or gaps isoform P01116-2 G13D): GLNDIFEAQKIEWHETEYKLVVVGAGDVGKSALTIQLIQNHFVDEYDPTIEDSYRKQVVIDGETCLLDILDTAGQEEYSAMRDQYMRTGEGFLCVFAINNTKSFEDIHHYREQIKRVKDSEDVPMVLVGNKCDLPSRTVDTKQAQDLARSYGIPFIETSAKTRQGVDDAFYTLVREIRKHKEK

MKN-1 cells = assay: Cellular phospho-ERK assay, MKN-1 cells (amplified wild-type KRAS); type: cell-based; conditions: Homo sapiens, amplified wild-type KRAS, 2 hours, read-out: MKN1 pERK IC50
In short: (§2)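 Cells were seeded overnight, then treated 2 h at 37° C with compound in a 10-point, 1:3 titration from 30 μM top final concentration. Lysates were assayed by AlphaLISA SureFire Ultra for p-ERK and total ERK. IC50 came from a 4-parameter logistic fit of the p-ERK/total ERK ratio.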

PANC08.13 cells = assay: Cellular phospho-ERK assay, PANC08.13 cells (homozygous KRAS-G12D); type: cell-based; conditions: Homo sapiens, PANC-08-13, KRAS-G12D, 2 hours, read-out: PANC-08.13 pERK IC50
In short: as §2

SW620 cells = assay: Cellular phospho-ERK assay, SW620 cells (homozygous KRAS-G12V); type: cell-based; conditions: Homo sapiens, SW-620, KRAS-G12V, 2 hours, read-out: SW620 pERK IC50
In short: as §2

AsPC-1 cells = assay: Cellular phospho-ERK assay, AsPC-1 cells (homozygous KRAS-G12D); type: cell-based; conditions: Homo sapiens, ASPC1, 2 h, KRAS-G12D, 2 hours, read-out: AsPC1 pERK IC50
In short: as §2

Chain of KRAS-WT (P01116 with tags, fused parts or gaps isoform P01116-2): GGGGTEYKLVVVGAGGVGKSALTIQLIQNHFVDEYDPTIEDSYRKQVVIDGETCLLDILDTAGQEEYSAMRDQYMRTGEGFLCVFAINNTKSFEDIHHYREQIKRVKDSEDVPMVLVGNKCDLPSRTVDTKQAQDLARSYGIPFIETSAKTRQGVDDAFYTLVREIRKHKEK

Compound | IC50 (KRAS-WT) | IC50 [1] | IC50 (KRAS-G12D) | IC50 (KRAS-G12V) | IC50 (KRAS-G13D) | IC50 (MKN-1 cells) | IC50 (PANC08.13 cells) | IC50 (SW620 cells) | IC50 (AsPC-1 cells)
Cn1c2nc(OC[C@@]34CCCN3C[C@H](F)C4)nc(N3CCOC[C@@](C)(O)C3)c2c2ccnc(-c3ccc(F)c4sc(N)c(C#N)c34)c21 [Ex-16, 2-amino-7-fluoro-4-(2-(((2R,7aS)-2-fluorotetrahydro-1H-pyrrolizin-7a(5H)-yl)methoxy)-4-((S)-6-hydroxy-6-methyl-1,4-oxazepan-4-yl)-9-methyl-9H-pyrido[4′,3′:4,5]pyrrolo[2,3-d]pyrimidin-8-yl)benzo[b]thiophene-3-carbonitrile] | 765 nM | 1320 nM | 952 nM | 561 nM | 315 nM | 1770 nM | 5450 nM | 8490 nM | 
Cc1cc2[nH]ncc2c(-c2nccc3c2sc2nc(OC[C@@]45CCCN4C[C@H](F)C5)nc(N4CCOC[C@@](C)(O)C4)c23)c1C(F)(F)F [Ex-126, (6S)-4-(2-(((2R,7aS)-2-fluorotetrahydro-1H-pyrrolizin-7a(5H)-yl)methoxy)-8-(6-methyl-5-(trifluoromethyl)-1H-indazol-4-yl)pyrido[4′,3′:4,5]thieno[2,3-d]pyrimidin-4-yl)-6-methyl-1,4-oxazepan-6-ol] | 88.3 nM | 30.7 nM | 34.9 nM | 52.8 nM | 58.6 nM | 169 nM | 85.4 nM | 320 nM | 271 nM
C#Cc1c(C)cc2[nH]ncc2c1-c1nccc2c3c(N4CCOC[C@@](C)(O)C4)nc(OC[C@@]45CCCN4C[C@H](F)C5)nc3n(C)c12 (single isomer, unassigned) [Ex-7] | 42.9 nM | 129 nM | 22.3 nM | 30.2 nM | 22.9 nM | 142 nM | 99.9 nM | 233 nM | 248 nM
Cc1cc2[nH]ncc2c(-c2nccc3c4c(N5CCC[C@@](C)(O)C5)nc(OC[C@]5(CN(C)C)CC5(F)F)nc4n(C)c23)c1C(F)(F)F [Ex-6, (3R)-1-(2-(((R)-1-((dimethylamino)methyl)-2,2-difluorocyclopropyl)methoxy)-9-methyl-8-(6-methyl-5-(trifluoromethyl)-1H-indazol-4-yl)-9H-pyrido[4′,3′:4,5]pyrrolo[2,3-d]pyrimidin-4-yl)-3-methylpiperidin-3-ol] | 218 nM | 104 nM | 98.1 nM | 128 nM | 49 nM | 304 nM | 188 nM | 291 nM | 460 nM
COc1cc2c3c(N4CCOC[C@@](C)(O)C4)nc(OC[C@@]45CCCN4C[C@H](F)C5)nc3n(C)c2c(-c2c(C(F)(F)F)c(C)cc3[nH]ncc23)n1 [Ex-26, (6S)-4-(2-(((2R,7aS)-2-fluorotetrahydro-1H-pyrrolizin-7a(5H)-yl)methoxy)-6-methoxy-9-methyl-8-(6-methyl-5-(trifluoromethyl)-1H-indazol-4-yl)-9H-pyrido[4′,3′:4,5]pyrrolo[2,3-d]pyrimidin-4-yl)-6-methyl-1,4-oxazepan-6-ol] | 189 nM | 209 nM | 96 nM | 96.3 nM | 94.3 nM | 325 nM | 170 nM | 709 nM | 
C#Cc1cccc2cccc(-c3nccc4c3sc3nc(OC[C@@]56CCCN5C[C@H](F)C6)nc(N5CCOC[C@@](C)(O)C5)c34)c12 [Ex-127, (S)-4-(8-(8-ethynyl-naphthalen-1-yl)-2-(((2R,7aS)-2-fluoro-tetrahydro-1H-pyr-rolizin-7a(5H)-yl)-methoxy)pyrido[4′, 3′:4,5]thieno[2,3-d]pyrimidin-4-yl)-6-methyl-1,4-oxaze-pan-6-ol] | 233 nM | 91.7 nM | 103 nM | 121 nM | 287 nM | 510 nM | 351 nM | 483 nM | 
Cn1c2nc(OC[C@@]34CCCN3C[C@H](F)C4)nc(N3CCOC[C@@](C)(O)C3)c2c2ccnc(-c3c(C(F)F)c(Cl)cc4[nH]ncc34)c21 (single isomer, unassigned) [Ex-11] | 158 nM | 41.1 nM | 84.2 nM | 125 nM | 105 nM |  | 240 nM |  | 1200 nM
